We go through seven substances from patent US20220226484A1, “THERAPEUTIC PEPTIDES” (COHBAR, INC., priority 2019, published 2022).

Non-standard residues stand in square brackets, D forms with d. Primed or numbered codes have the meaning given here. No end group written: not given here. PEG12′ = not defined here

The test system of assay [1] is DSS-induced colitis in female C57BL/6NTac mice. Nature of the assay: DSS-induced colitis mouse model of inflammatory bowel disease. The assay is classed as in vivo. To be noted: 3% DSS 8 days; peptides 10 mg/kg/day intraperitoneal; CsA 80 mg/kg/day oral; AUC over 8 days.
Experimental: The effect of the peptides on inflammatory disease can be assessed by monitoring fecal blood, stool consistency, and body weight loss in a DSS-induced colitis mouse model. Colitis was induced in female C57BL/6NTac mice (9-11 weeks old) by continuous ad libitum oral administration of dextran sodium sulfate (DSS) 3% in sterile drinking water for 8 days. Control (No DSS) mice received sterile water instead of DSS solution. Peptides were administered intraperitoneally once daily at 10 mg/kg/day for 8 days in combination with oral DSS. […] Daily assessments included body weight loss score, fecal blood score, stool consistency score, and composite disease activity index (DAI) score, based on the first three parameters combined. Scores recorded on each day over 8 days were used to calculate area under the curve (AUC) values for each endpoint in individual animals.
For another assay, the system named is H4IIE Rat Hepatoma Cells. Kind of assay: Insulin-dependent effect on glucose production by cultured rat liver cells. It counts as cell-based. The settings on record: for Glucose Levels, MEAN % Control, +Insulin: peptide 10 μM + insulin 800 pM, percent of insulin (800 pM); for Glucose Levels, MEAN % Control, +Insulin / Glucose Levels, MEAN % Control, −Insulin: 24 hour; for Glucose Levels, MEAN % Control, −Insulin: peptide 10 μM alone, percent of untreated control cells. As to the method:
The effect of the peptides on glucose production was assessed in the absence and presence of insulin using an assay of glucose levels in cultured cells such as rat hepatocytes. Peptides were initially prepared as 10 mM stock in DMSO and used at a final concentration of 10 μM (0.1% DMSO). Insulin (800 pM) was used as a partial inhibitor of glucose production. H4-IIE cells purchased from ATCC (Manassas, Va.) were seeded at 100,000 cells/well in standard medium (DMEM/high glucose+10% FBS+1× Glutamax+antibiotics) on 96-well plates and allowed to adhere overnight at 37° C. in a humidified atmosphere of 5% CO2/95% air. Approximately 24 h after seeding, the medium was removed, cells rinsed with glucose free DMEM, and Glucose Production Medium (glucose free DMEM+2 mM sodium pyruvate+10 mM sodium lactate) was added. The cultures were placed at 37° C. in a humidified atmosphere of 5% CO2/95% air overnight. The next morning, the medium was removed and fresh Glucose Production Medium containing compounds was added. Insulin at 800 pM was added to control wells. Peptides (10 μM) in the absence or presence of insulin (800 pM) were added to test wells. Cells in the presence of compounds were placed at 37° C. in a humidified atmosphere of 5% CO2/95% air overnight. After 24 hour incubation, conditioned medium from each well was transferred to a fresh 96-well plate for quantitation of glucose content. Quantitation of glucose levels was determined using an Amplex Red Glucose Assay kit (Abacm; Cambridge, Mass.) according to the manufacturer's instructions using a Cytation 3 plate reader at 570 nm (BioTek, Winooski, Vt.). Absorbance values were expressed as a percent of untreated control cells (maximum glucose production) for peptide alone samples or insulin (800 pM) for peptides in the presence of insulin (800 pM. Glucose levels for insulin (800 pM) treatment were ˜80-90% of the untreated control values. The results are reported in Table 15.

The test system of assay [2] is 3T3-L1 Mouse Adipocytes. Nature of the assay: Insulin-dependent effect on free fatty acid levels in cultured mouse adipocytes. It counts as cell-based. To be noted: for Free Fatty Acid Levels, MEAN % ISO, +Insulin: peptide 10 μM + insulin 0.25 nM, percent of isoproterenol (0.1 nM)+insulin (0.25 nM); for Free Fatty Acid Levels, MEAN % ISO, +Insulin / Free Fatty Acid Levels, MEAN % ISO, −Insulin: 3 hours; for Free Fatty Acid Levels, MEAN % ISO, −Insulin: peptide 10 μM alone, percent of isoproterenol (0.1 nM) treated control cells. As for the experimental part: The effect of the peptides on fatty acid metabolism was assessed in the absence and presence of insulin using an assay of free fatty acid levels in cultured cells such as mouse adipocytes. Peptides were initially prepared as 10 mM stock in DMSO and used at a final concentration of 10 μM (0.1% DMSO). […] Insulin (0.25 nM) was used as a partial inhibitor and insulin (10 nM) was used as a potent inhibitor of isoproterenol stimulated fatty acid production. Mouse 3T3-L1 cells purchased from ZenBio (Research Triangle Park, N.C.) were seeded at 3,000 cells per well on 96-well plates in Pre-Adipocyte Medium (Zen-Bio) and grown to confluence at 37° C. in a humidified atmosphere of 5% CO2/95% air. Two days after confluence, cells were placed in Adipocyte Differentiation Medium (Zen-Bio) and cultured for three additional days at 37° C. in a humidified atmosphere of 5% CO2/95% air. The culture medium was then partially replaced with Adipocyte Maintenance Medium (Zen-Bio) and the cells maintained at 37° C. in a humidified atmosphere of 5% CO2/95% air with partial medium replacement every other day. At 12 day of differentiation, 96-well cultures were transferred to Adipocyte Maintenance Medium without insulin and placed at 37° C. in a humidified atmosphere of 5% CO2/95% air for two days. Following this incubation period, the medium was removed from 14 day differentiated cultures and replaced with Assay Buffer (Zen-Bio) containing peptides (10 μM), insulin (0.25 nM or 10 nM), isoproterenol (0.1 nM) as appropriate. […] isoproterenol was added to all wells except untreated controls. Insulin at 0.1 nM and 10 nM was added to control wells. Peptides (10 μM) in the absence or presence of insulin (0.25 nM) were added to test wells. Cells in the presence of compounds were placed at 37° C. in a humidified atmosphere of 5% CO2/95% air for 3 hours. At the end of the final 3 h incubation, conditioned assay buffer was removed from each well and place in a fresh 96-well plate for quantitation of free fatty acid content. Free fatty acid concentrations in the assay buffer samples were determined using a Free Fatty Acid Assay kit (Zen-Bio) according to the manufacturer's instructions using a Cytation 3 plate reader at 540 nm (BioTek, Winooski, VD. Absorbance values were corrected for untreated background and expressed as a percent of isoproterenol (0.1 nM) treated control cells for peptides alone or isoproterenol (0.1 nM)+insulin (0.25 nM) for peptides in presence of insulin (0.25 nM). Treatment with isoproterenol […] alone was used as the free fatty acid level stimulatory control. The relative standard deviation of the isoproterenol control was <10%. […] Free fatty acid levels for insulin (10 nM) treatment were <5% of the isoproterenol control value. Free fatty acid levels for insulin (0.25 nM) treatment were 60-80% of the isoproterenol control value.

Assay [3] deals with 3T3-L1 Mouse Adipocytes. Kind of assay: Free fatty acid levels in cultured mouse adipocytes. The settings on record: insulin 100 nM, 1 nM isoproterenol. The assay is classed as cell-based. As for the experimental part: The effect of the peptides on fatty acid metabolism can be assessed using an assay of free fatty acid levels in cultured cells such as mouse adipocytes. Peptides were initially prepared as 10 mM stock in DMSO and used at a final concentration of 10 μM (0.1% DMSO). […] Mouse 3T3-L1 cells purchased from ZenBio were seeded at 3,000 cells per well in 96-well plates in Pre-adipocyte Medium (Zen-Bio) and grown to confluence at 37° C. in a humidified atmosphere of 5% CO2/95% air. Two days after confluence, cells were placed in Adipocyte Differentiation Medium (Zen-Bio) and cultured for three additional days at 37° C. in a humidified atmosphere of 5% CO2/95% air. The culture media was then replaced with Adipocyte Maintenance Medium (Zen-Bio) and the cells maintained for an additional 9-12 days at 37° C. in a humidified atmosphere of 5% CO2/95% air with partial medium replacement every other day. Following 12-15 days of differentiation, test peptides were added at a final concentration of 10 μM in 0.1% DMSO and incubated for 20-22 hours in Adipocyte Maintenance Medium at 37° C. in a humidified atmosphere of 5% CO2/95% air. After 20-22 hours, 1 nM isoproterenol was added to all wells except untreated controls and test peptides were replenished. Insulin at 100 nM was added to control wells. Cells were incubated for 3 hours in Assay Buffer (Zen-Bio) at 37° C. in a humidified atmosphere of 5% CO2/95% air. Free fatty acid concentrations in the media were determined using a Free Fatty Acid Assay kit (Zen-Bio) according to the manufacturer's instructions using a Cytation 3 plate reader at 540 nm (BioTek, Winooski, Vt.). Absorbance values were corrected for untreated background and expressed relative to isoproterenol treated cells. Treatment with isoproterenol (1 nM) alone was used as the free fatty acid level stimulatory control. The relative standard deviation of the isoproterenol control was <10%. […] Free fatty acid levels for insulin (100 nM) treatment were <5% of the isoproterenol control value.
The effect of the peptides on fatty acid metabolism was assessed using an assay of free fatty acid levels in cultured cells such as mouse adipocytes. Peptides were initially prepared as 10 mM stock in DMSO and used at a final concentration of 10 μM (0.1% DMSO). […] Mouse 3T3-L1 cells purchased from ZenBio were seeded at 3,000 cells per well in 96-well plates in Pre-adipocyte Medium (Zen-Bio) and grown to confluence at 37° C. in a humidified atmosphere of 5% CO2/95% air. Two days after confluence, cells were placed in Adipocyte Differentiation Medium (Zen-Bio) and cultured for three additional days at 37° C. in a humidified atmosphere of 5% CO2/95% air. The culture media was then replaced with Adipocyte Maintenance Medium (Zen-Bio) and the cells maintained for an additional 9-12 days at 37° C. in a humidified atmosphere of 5% CO2/95% air with partial medium replacement every other day. Following 12-15 days of differentiation, test peptides were added at a final concentration of 10 μM in 0.1% DMSO and incubated for 20-22 hours in Adipocyte Maintenance Medium at 37° C. in a humidified atmosphere of 5% CO2/95% air. After 20-22 hours, 1 nM isoproterenol was added to all wells except untreated controls and test peptides were replenished. Insulin at 100 nM was added to control wells. Cells were incubated for 3 hours in Assay Buffer (Zen-Bio) at 37° C. in a humidified atmosphere of 5% CO2/95% air. Free fatty acid concentrations in the media were determined using a Free Fatty Acid Assay kit (Zen-Bio) according to the manufacturer's instructions using a Cytation 3 plate reader at 540 nm (BioTek, Winooski, Vt.). Absorbance values were corrected for untreated background and expressed relative to isoproterenol treated cells. Treatment with isoproterenol (1 nM) alone was used as the free fatty acid level stimulatory control. The relative standard deviation of the isoproterenol control was <10%. […]

As for “RVIRACLGVGLLGDL(dA)GK{PEG12} [SEQ ID NO: 29] (RVIRACLGVGLLGDL[dA]GK(PEG12′))”, in assay [1], the “Mean (SEM) Body Weight Loss Score AUC” value was 2.10 (0.76), the “Mean (SEM) Composite Disease Activity Index (DAI) Score AUC” value is reported as 19.8 (1.99), the “Mean (SEM) Fecal Blood Score AUC” value is 12.8 (1.04) and the “Mean (SEM) Stool Consistency Score AUC” value is recorded as 5.05 (0.78).

“RVIRACLGVGLLGDL(dA)GK{PEG12} [SEQ ID NO: 30] (RVIRACLGVGLLGDL[dA]GK(PEG12′); not fully specified; printed as RVIRACLGVGLLGDL(dA)GK{PEG12}) [possibly the dimer of this chain]”: in assay [1], the “Mean (SEM) Body Weight Loss Score AUC” value is given as 0.95 (0.69), the “Mean (SEM) Composite Disease Activity Index (DAI) Score AUC” value is reported as 14.9 (0.86), the “Mean (SEM) Fecal Blood Score AUC” value is on record as 9.30 (0.44) and the “Mean (SEM) Stool Consistency Score AUC” value is reported as 4.65 (0.48).

For “RVIRMCLNNGLNGEL(dA)G (RVIRMCLNNGLNGEL[dA]G) [SEQ ID NO: 22]”, in the assay with H4IIE Rat Hepatoma Cells, the “Glucose Levels, MEAN % Control, +Insulin” value was 0.5% and the “Glucose Levels, MEAN % Control, −Insulin” value is -0.4%. For the same substance, in the assay on 3T3-L1 Mouse Adipocytes [2], the “Free Fatty Acid Levels, MEAN % ISO, +Insulin” value is reported as 25.3% and the “Free Fatty Acid Levels, MEAN % ISO, −Insulin” value came to 93.6%.

As for “RVIRMCLNVGLEGEL(dA) (RVIRMCLNVGLEGEL[dA]) [SEQ ID NO: 19]”, in the assay with H4IIE Rat Hepatoma Cells, the “Glucose Levels, MEAN % Control, +Insulin” value amounted to 3.7% and the “Glucose Levels, MEAN % Control, −Insulin” value stood at 12.5%. Besides, in the assay with 3T3-L1 Mouse Adipocytes [2], the “Free Fatty Acid Levels, MEAN % ISO, +Insulin” value is recorded as 24.7% and the “Free Fatty Acid Levels, MEAN % ISO, −Insulin” value stood at 67.1%.

Consider RVIRMCLNVGLNGE [SEQ ID NO: 21], for which, in the assay with H4IIE Rat Hepatoma Cells, the “Glucose Levels, MEAN % Control, +Insulin” value came out at 78.2% and the “Glucose Levels, MEAN % Control, −Insulin” value was found to be 102%. In the assay with 3T3-L1 Mouse Adipocytes [2], the “Free Fatty Acid Levels, MEAN % ISO, +Insulin” value came out at 40.0% and the “Free Fatty Acid Levels, MEAN % ISO, −Insulin” value amounted to 102%.

On to “insulin: highly potent positive control for decreasing free fatty acid levels; partial inhibitor of glucose production”, for which, in the assay on H4IIE Rat Hepatoma Cells (insulin 800 pM), the “Glucose levels, % of the untreated control values” is on record as 80-90%. For the same substance, the “Free fatty acid levels, % of the isoproterenol control value” is reported as 60-80% in the assay with 3T3-L1 Mouse Adipocytes [2] (insulin 0.25 nM), below 5% with 3T3-L1 Mouse Adipocytes [2] (insulin 10 nM) and below 5% in the assay on 3T3-L1 Mouse Adipocytes [3].

As for “{PEG12}KRVIRMCLNVGLLGEL(dA)E ([PEG12′]KRVIRMCLNVGLLGEL[dA]E) [SEQ ID NO: 18]”, in the assay on H4IIE Rat Hepatoma Cells, the “Glucose Levels, MEAN % Control, +Insulin” value stood at 95.4% and the “Glucose Levels, MEAN % Control, −Insulin” value is given as 101%. Further, in the assay on 3T3-L1 Mouse Adipocytes [2], the “Free Fatty Acid Levels, MEAN % ISO, +Insulin” value is 93.6% and the “Free Fatty Acid Levels, MEAN % ISO, −Insulin” value turned out to be 107%.
